In patent US6878734B2, “Gastrin and cholecystokinin receptor ligands(II)” (James Black Foundation Limited, priority 2000, dated 2005):

Key:
CCK1 receptors = molecular target: T1, CCK1 receptors (Cavia porcellus, UniProt Q63931); assay: CCK1 binding assay, guinea-pig pancreas membranes, [125I]-CCK8(S); settings: [125I]-CCK8(S) 200 pM, 150 minutes at 21±3° C; for Ki: read-out: Guinea-Pig Pancreas CCK1 pKi (converted)
T1 construct: The pancreatata were homogenised in 40 ml ice-cold HEPES buffer using a polytron; from tissue; host or cells: pancreas membranes of male Dunkin Hartley guinea-pigs
T1 sequence (Q63931 1-430): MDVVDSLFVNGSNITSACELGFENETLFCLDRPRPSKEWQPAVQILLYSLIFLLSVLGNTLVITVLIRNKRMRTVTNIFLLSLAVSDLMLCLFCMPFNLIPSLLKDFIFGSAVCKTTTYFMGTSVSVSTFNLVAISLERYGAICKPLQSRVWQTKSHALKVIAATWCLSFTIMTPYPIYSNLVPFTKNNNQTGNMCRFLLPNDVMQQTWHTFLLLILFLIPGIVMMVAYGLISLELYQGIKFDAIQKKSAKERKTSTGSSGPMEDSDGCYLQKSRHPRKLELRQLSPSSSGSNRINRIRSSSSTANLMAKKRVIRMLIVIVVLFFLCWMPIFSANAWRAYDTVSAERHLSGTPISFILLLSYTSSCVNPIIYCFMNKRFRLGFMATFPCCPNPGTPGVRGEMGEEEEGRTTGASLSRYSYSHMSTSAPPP
Experimental: The compounds of certain examples were also tested in a CCK1 binding assay as follows:
The pancreatata were removed from male guinea-pigs (200-300 g; Dunkin Hartley) and placed in ice-cold HEPES buffer (pH 7.2@21±3° C.). The pancreatata were homogenised in 40 ml ice-cold HEPES buffer using a polytron (Brinkmann, PT10, setting 10) 4×1 second. The homogenate was centrifuged at 39,800 g for 15 min at 4° C. The supernatant was discarded and the pellet re-suspended using a Teflon-in-glass homogeniser in 20 volumes of fresh buffer and re-centrifuged as above. The final pellet was re-suspended using a Teflon-in-glass homogeniser to a tissue concentration of 1 mg.ml^−1 (original wet weight), and filtered through a 500 μm pore-size Nytex mesh.
The membranes (400 μl; containing 0.375 μM PD134,308) were incubated for 150 minutes at 21±3° C. in a final volume of 0.5 ml with HEPES buffer containing [^125I]-CCK8 (S) (50 μl; 200 pM) and competing compound. Total and non-specific binding of [^125I]-CCK8 (S) were defined using 50 μl of buffer and 50μ of 100 nM L-364,718 respectively. The assay was terminated by rapid filtration through pre-soaked Whatman GF/B filters using a Brandell Cell Harvetser. The filters were washed (3×3 ml) with ice-cold 50 mM Tris HCl (pH 7.4@4° C.) and bound radioactivity was determined by counting (1 min) in a gamma counter.

gastrin (CCK2) receptors = molecular target: T2, gastrin (CCK2) receptors (Rattus norvegicus, UniProt P30553); assay: immature rat stomach assay, gastrin (CCK2) antagonist activity; settings: isolated immature rat stomach, antagonism of pentagastrin-stimulated acid secretion, 60 min incubation; for Kb: read-out: Rat stomach pKB (converted)
T2 construct: The stomach was excised and flushed with ca. 1 ml of unbuffered physiological saline solution; from tissue; host or cells: isolated whole stomach of immature rats (33-50 g, ca. 21 days old)
T2 sequence (P30553 1-452): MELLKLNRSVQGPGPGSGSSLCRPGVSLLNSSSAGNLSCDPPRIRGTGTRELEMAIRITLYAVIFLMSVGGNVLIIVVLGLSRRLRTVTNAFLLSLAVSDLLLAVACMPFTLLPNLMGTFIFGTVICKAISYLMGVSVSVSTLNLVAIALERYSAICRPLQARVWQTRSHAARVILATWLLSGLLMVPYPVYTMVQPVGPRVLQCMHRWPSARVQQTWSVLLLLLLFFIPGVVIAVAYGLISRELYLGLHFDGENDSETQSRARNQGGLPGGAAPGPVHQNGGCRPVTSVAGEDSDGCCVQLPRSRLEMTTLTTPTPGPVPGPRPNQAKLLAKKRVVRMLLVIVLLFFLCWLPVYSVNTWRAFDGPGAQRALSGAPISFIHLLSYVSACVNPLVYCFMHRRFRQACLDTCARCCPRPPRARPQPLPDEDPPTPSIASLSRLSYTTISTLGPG
Experimental: The compounds of the examples were tested for gastrin (CCK2) antagonist activity in an immature rat stomach assay. The procedure was as follows:
The oesophagus of immature rats (33-50 g, ca. 21 days old) was ligated at the level of the cardiac sphincter and the duodenal sphincter was cannulated. The stomach was excised and flushed with ca. 1 ml of unbuffered physiological saline solution. The fundus was punctured and cannulated. A further 4-5 ml of unbuffered solution was flushed through the stomach to ensure the preparation was not leaking. The stomach was lowered into a jacketed organ bath containing 40 ml of buffered solution containing 3×10^−8 M 5-methylfurmethide, maintained at 37° and gassed vigorously with 95% O2/5% CO2. The stomach was continuously perfused at a rate of 1 ml min^−1 with unbuffered solution gassed with 100% O2 with perfusate passing over an internally referenced pH-electrode fixed 12 cm above the stomach.
After 120 min of stabilisation the drugs were added directly to the serosal solution in the organ bath and after a further 60 min cumulative pentagastrin dose-response curves were started. Changes in acid secretion were monitored and the curves analysed according to Black et al., Br. J. Pharmacol., 1985, 86, 581.

Ki (CCK1 receptors)	Kb (gastrin (CCK2) receptors)	Molecule	Guinea-Pig Pancreas CCK1 pKi (CCK1 receptors)	Rat stomach pKB (gastrin (CCK2) receptors)
741 nM	7.94 nM	O=C(O)c1cccc(-c2coc(-c3nc(C4CCCCC4)[nH]c3COC34CC5CC(CC(C5)C3)C4)n2)c1 [Example 1, 3-{2-[5-(Adamantan-1-yloxymethyl)-2-cyclohexyl-1H-imidazol-4-yl}-oxazol-4-yl}-benzoic acid]	–	–
1170 nM	18.2 nM	Cc1ccccc1-c1nc(-c2nc(-c3cccc(C(=O)O)c3)co2)c(CCC23CC4CC(CC(C4)C2)C3)[nH]1 [Example 2, 3-{2-[5-(2-Adamantan-1-yl-ethyl)-2-o-tolyl-1H-imidazol-4-yl]oxazol-4-yl}-benzoic acid]	–	–
339 nM	6.92 nM	O=C(O)c1cccc(-c2noc(-c3nc(C4CCCCC4)[nH]c3CCC34CC5CC(CC(C5)C3)C4)n2)c1 [Example 4, 3-{2-[5-(2-Adamantan-1-yl-ethyl)-2-cyclohexyl-1H-imidazol-4-yl]-[1,2,4]oxadiazol-3-3-yl}-benzoic acid]	–	–
1150 nM	2.69 nM	O=C(O)c1cccc(-c2csc(-c3nc(C4CCCCC4)[nH]c3COC34CC5CC(CC(C5)C3)C4)n2)c1 [Example 6, 3-{2-[5-(Adamantan-1-yloxymethyl)-2-cyclohexyl-1H-imidazol-4-yl]-thiazol-4-yl}-benzoic acid]	–	–
269 nM	97.7 nM	O=C(O)c1cccc(-c2c[nH]c(-c3nc(C4CCCCC4)[nH]c3COC34CC5CC(CC(C5)C3)C4)n2)c1 [Example 7, 3-[5′-(Adamantan-1-yloxymethyl)-2′cyclohexyl-1H,1H′-[2,4′]biimidazolyl-4-yl]-benzoic acid]	–	–
135 nM	3.72 nM	O=C(O)c1cccc(-c2nnc(-c3nc(C4CCCCC4)[nH]c3COC34CC5CC(CC(C5)C3)C4)s2)c1 [Example 8, 3-{5-[5-(Adamantan-1-yloxymethyl)-2-cyclohexyl-1H-imidazol-4-yl]-[1,3,4]thiadiazol-2-yl}-benzoic acid]	–	–
550 nM	2.45 nM	O=C(O)c1cccc(-c2nnc(-c3nc(C4CCCCC4)[nH]c3COC34CC5CC(CC(C5)C3)C4)o2)c1 [Example 9, 3-{5-[5-(Adamantan-1-yloxymethyl)-2-cyclohexyl-1H-imidazol-4-yl]-[1,3,4]oxadiazol-2-yl}-benzoic acid]	–	–
3240 nM	22.9 nM	O=C(O)c1cncc(-c2nnc(-c3nc(C4CCCCC4)[nH]c3COC34CC5CC(CC(C5)C3)C4)o2)c1 [Example 13, 5-{5-[5-(Adamantan-1-yloxymethyl)-2-cyclohexyl-1H-imidazol-4-yl]-[1,3,4]oxadiazo-2-yl}-nicotinic acid]	–	–
501 nM	2.4 nM	O=C(O)c1cccc(-c2nc(-c3nc(C4CCCCC4)[nH]c3COC34CC5CC(CC(C5)C3)C4)no2)c1 [Example 18, 3-{3-[5-(Adamantan-1-yloxymethyl)-2-cyclohexyl-1H-imidazol-4-yl]-[1,2,4]oxadiazol-5-yl}-benzoic acid]	–	–

More lines, now with the values behind:

Molecule	Ki (CCK1 receptors)	Kb (gastrin (CCK2) receptors)	Guinea-Pig Pancreas CCK1 pKi (CCK1 receptors)	Rat stomach pKB (gastrin (CCK2) receptors)
2-{5-[5-(Adamantan-1-yloxymethyl)-2-cyclohexyl-1H-imidazol-2-yl]-[1,3,4]oxadiazol-2-yl}-isonicotinic acid [Example 14]	–	–	5.01	5.98
3-{2-[5-(2-Adamantan-1-yl-ethyl)-2-o-tolyl-1H-imidazol-4-yl]-[1,2,4]oxadiazol-3-yl}-benzoic acid [Example 5]	–	–	6.40	5.76
3-{2-[5-(Adamantan-1-yloxymethyl)-2-cyclohexyl-1H-imidazol-4-yl]-[1,2,4]oxadiazol-3-yl}-benzoic acid [Example 3]	–	–	6.37	8.66
3-{5-[5-(Adamantan-1-yloxymethyl)-2-cyclohexyl-1H-imidazol-4-yl]-[1,3,4]triazol-3-yl}-benzoic acid [Example 10]	–	–	6.41	8.28
3-{5-[5-(Adamantan-1-yloxymethyl)-2-cyclohexyl-3-hydroxy-1H-imidazol-4-yl]-[1,3,4]oxadiazol-2-yl}-benzoic acid [Example 17]	–	–	5.23	6.90
O=C(O)c1cccc(C2CN=C(c3nc(C4CCCCC4)[nH]c3COC34CC5CC(CC(C5)C3)C4)O2)c1 (centres unmarked) [Example 11, 3-{2-[5-(Adamantan-1-yloxymethyl)-2-cyclohexyl-1H-imidazol-4-yl]-4,5-dihydro-oxazol-5-yl}-benzoic acid]	–	191 nM	–	–
O=C(O)c1cccc(-c2nnc(-c3nc(C4CCCCC4)[nH]c3COC34CC5CC(CC(C5)C3)C4)o2)n1 [Example 12, 6-{5-[5-(Adamantan-1-yloxymethyl)-2-cyclohexyl-1H-imidazol-4-yl]-[1,3,4]oxadiazol-2-yl}-pyridine-2-carboxylic acid]	2140 nM	–	–	–
O=C(O)c1cccc(-c2nnc(-c3nc(C45CCC(CC4)CC5)[nH]c3COC34CC5CC(CC(C5)C3)C4)o2)c1 [Example 16, 3-{5-[5-(Adamantan-1-yloxymethyl)-2-bicyclo[2.2.2]oct-1-yl-1H-imidazol-4-yl]-[1,3,4]oxadiazol-2-yl}-benzoic acid]	468 nM	1.91 nM	–	–
